Holding throughout (assay type): in vivo
The test system of assay [1] is Alopecurus myosuroides (ALOMY). Kind of assay: Post-emergence biological efficacy, glasshouse, 500 or 1000 g/ha, evaluated after 13 days (100=total damage to plant; 0=no damage to plant). The settings on record: Alopecurus myosuroides, 312 h, rate 1,000 g/ha, read-out: Percentage damage caused to weed species, post-emergence, ALOMY. The procedure, abridged:
(§1)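 Damage is scored on pot-grown plants, sown in standard soil and sprayed after emergence, that were held post-treatment in a glasshouse (24/16° C. day/night, 14 hours light, 65% humidity).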

Assay [2] has as its system Solanum nigrum (SOLNI). The description is as above. The settings on record: Solanum nigrum, 312 h, rate 1,000 g/ha, read-out: Percentage damage caused to weed species, post-emergence, SOLNI. The procedure, abridged: as §1
The subject of assay [3] is Setaria faberi (SETFA). The description is as above. As to conditions: Setaria faberi, 312 h, rate 1,000 g/ha, read-out: Percentage damage caused to weed species, post-emergence, SETFA. The procedure, abridged: as §1
The subject of assay [4] is Echinochloa crusgaffi (ECHCG). The description is as above. The settings on record: Echinochloa, 312 h, rate 1,000 g/ha, read-out: Percentage damage caused to weed species, post-emergence, ECHCG. The gist of the method: as §1
Assay [5] has as its system Ipomoea hederaceae (IPOHE). Described as above. The settings on record: Ipomoea, 312 h, rate 1,000 g/ha, read-out: Percentage damage caused to weed species, post-emergence, IPOHE. The gist of the method: as §1
For assay [6], the system named is Amaranthus retroflexus (AMARE). The assay is described as above. The settings on record: Amaranthus retroflexus, 312 h, rate 1,000 g/ha, read-out: Percentage damage caused to weed species, post-emergence, AMARE. The gist of the method: as §1
Assay [7] concerns Alopecurus myosuroides (ALOMY). Kind of assay: Pre-emergence biological efficacy, glasshouse, 1000 g/ha, evaluated after 13 days (100=total damage to plant; 0=no damage to plant). As to conditions: Alopecurus myosuroides, 312 h, rate 1,000 g/ha, read-out: Percentage damage caused to weed species, pre-emergence, ALOMY. The procedure, abridged: (§2)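 Standard soil in pots received the seeds. Growth took place in a glasshouse held at 24/16° C. day/night, 65% humidity and 14 h of light.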

Assay [8] deals with Solanum nigrum (SOLNI). Described as above. As to conditions: Solanum nigrum, 312 h, rate 1,000 g/ha, read-out: Percentage damage caused to weed species, pre-emergence, SOLNI. The procedure, abridged:
as §2

The test system of assay [9] is Setaria faberi (SETFA). The description is as above. The settings on record: Setaria faberi, 312 h, rate 1,000 g/ha, read-out: Percentage damage caused to weed species, pre-emergence, SETFA. The gist of the method: as §2
For assay [10], the system named is Echinochloa crus-galli (ECHCG). The assay is described as above. As to conditions: Echinochloa crus-galli, 312 h, rate 1,000 g/ha, read-out: Percentage damage caused to weed species, pre-emergence, ECHCG. The gist of the method:
as §2

Assay [11] has as its system Ipomoea hederaceae (IPOHE). The assay is described as above. As to conditions: Ipomoea, 312 h, rate 1,000 g/ha, read-out: Percentage damage caused to weed species, pre-emergence, IPOHE. The gist of the method: as §2
For assay [12], the system named is Amaranthus retroflexus (AMARE). The description is as above. The settings on record: Amaranthus retroflexus, 312 h, rate 1,000 g/ha, read-out: Percentage damage caused to weed species, pre-emergence, AMARE. The procedure, abridged: as §2

As to `CCCCOCCOC(=O)c1nc(-c2ccc(Cl)c(OC)c2F)cc2[nH]cc(C)c12` [Compound 22-83], the pest or weed control at 1000 g/ha in [1] came out at 20%; in assay [2] it was 90%; in assay [3], 40%; in [4], 20%; in [5], 60%; in assay [6] it was 90%. Besides, the pest or weed control at 1000 g/ha in assay [7] turned out to be 20%; in [8], 80%; in assay [9], 10%; in [10], 20%; in assay [11] it was 80%; in assay [12], 0%.

On to `CCOCCOC(=O)c1nc(-c2ccc(Cl)c(OC)c2F)cc2[nH]cc(C)c12` [Compound 22-82, 6-(4-Chloro-2-fluoro-3-methoxyphenyl)-4-[(2-ethoxy)-ethoxycarbonyl]-3-methyl-1H-pyrrolo[3,2-c]pyridine], for which the pest or weed control at 1000 g/ha in assay [1] turned out to be 20%; in assay [2], 90%; in [3], 40%; in assay [4], 20%; in assay [5] it was 40%; in assay [6] it was 80%. Moreover, the pest or weed control at 1000 g/ha in assay [7] was determined as 10%; in assay [8], 90%; in assay [9] it was 0%; in assay [10] it was 20%; in assay [11] it was 90%; in assay [12] it was 70%.

For `Cc1c[nH]c2nc(C3CC3)nc(C(=O)O)c12` [Compound 1-3, 4-Carboxy-2-cyclopropyl-5-methyl-7H-pyrrolo[2,3-d]pyrimidine], the pest or weed control at 1000 g/ha in assay [1] was determined as 0%; in [2] it was 80%; in assay [3], 0%; in assay [4] it was 0%; in assay [5], 50%; in assay [6], 100%. For the same compound, the pest or weed control at 1000 g/ha worked out at 0% in assay [7]; 20% in assay [8]; 10% in [9]; 0% in assay [10]; 100% in assay [11]; 50% in assay [12].

Turning to `COC(=O)c1nc(Cl)cc2[nH]ccc12` [Compound 22-122, 6-chloro-4-methoxycarbonyl-1H-pyrrolo[3,2-c]pyridine], the pest or weed control at 1000 g/ha in assay [1] was found to be 0%; in [2], 20%; in assay [3] it was 0%; in assay [4], 0%; in assay [5], 10%; in assay [6], 60%. The pest or weed control at 1000 g/ha in assay [7], in [8], in assay [9], in [10], in assay [11] and in assay [12] was 0% throughout.

As for `COC(=O)c1nc(-c2ccc(Cl)c(OC)c2F)nc2c1c(C)cn2C` [Compound 2-64, 2-(4-Chloro-2-fluoro-3-methoxyphenyl)-5,7-dimethyl-4-methoxycarbonyl-7H-pyrrolo[2,3-d]pyrimidine], the pest or weed control at 1000 g/ha in [1] was found to be 0%; in assay [2] it was 60%; in [3], 0%; in assay [4], 0%; in [5], 40%; in assay [6], 30%. For the same compound, the pest or weed control at 1000 g/ha in assay [7] was determined as 0%; in assay [8] it was 40%; in assay [9], 0%; in assay [10], 0%; in assay [11] it was 50%; in assay [12], 30%.

On to `COc1c(Cl)ccc(-c2nc(C(=O)O)c3c(C)cn(S(=O)(=O)c4ccc(C)cc4)c3n2)c1F` [Compound 19-63, 4-Carboxy-2-(4-chloro-2-fluoro-3-methoxyphenyl)-5-methyl-7-(4-methylphenyl-sulphonyl)-7H-pyrrolo[2,3-d]pyrimidine], for which the pest or weed control at 1000 g/ha in assay [1] turned out to be 0%; in [2] it was 70%; in [3], 0%; in [4], 0%; in [5] it was 60%; in assay [6] it was 50%. For the same compound, the pest or weed control at 1000 g/ha in assay [7], in assay [8], in assay [9], in [10], in assay [11] and in [12] was 0% throughout.

For `COC(=O)c1nc(Cl)nc2c1cc(C)n2Cc1ccco1` [Compound 11-126, 2-chloro-7-(2-furanylmethyl)-4-methoxycarbonyl-6-methyl-7H-pyrrolo[2,3-d]pyrimidine], the pest or weed control at 1000 g/ha in assay [1] was 0%; in assay [2] it was 20%; in assay [3] it was 0%; in assay [4] it was 0%; in assay [5], 0%; in assay [6] it was 0%. For the same compound, the pest or weed control at 1000 g/ha in assay [7], in assay [8], in [9], in assay [10], in assay [11] and in assay [12] was 0% throughout.

`COC(=O)c1nc(-c2ccc(Cl)c(N(C)C)c2F)nc2[nH]cc(C)c12` [Compound 1-116, 2-(4-Chloro-3-dimethylamino-2-fluorophenyl)-4-methoxycarbonyl-5-methyl-7H-pyrrolo[2,3-d]pyrimidine]: the pest or weed control at 1000 g/ha in assay [1] turned out to be 0%; in assay [2], 40%; in assay [3], 20%; in assay [4], 0%; in assay [5], 50%; in [6], 50%. In addition, the pest or weed control at 1000 g/ha in assay [7], in [8], in assay [9], in assay [10], in assay [11] and in [12] was 0% each time.

`COC(=O)c1nc(-c2ccc(Cl)c(F)c2)nc2[nH]c(C)cc12` [Compound 1-22, 2-(4-Chloro-3-fluorophenyl)-4-methoxycarbonyl-6-methyl-7H-pyrrolo[2,3-d]pyrimidine]: the pest or weed control at 1000 g/ha in assay [1] was found to be 10%; in assay [2] it was 30%; in [3], 10%; in [4] it was 0%; in assay [5], 40%; in assay [6], 20%. Besides, the pest or weed control at 1000 g/ha in assay [7], in assay [8], in assay [9], in [10], in assay [11] and in [12] was 0% in each case.

With `COC(=O)c1nc(-c2ccc(Cl)c(OC)c2F)nc2c1NC(C)C(C)N2` (stereo not drawn) [Compound 91-184, 2-(4-Chloro-2-fluoro-3-methoxyphenyl)-6,7-dimethyl-4-methoxy-carbonyl-5,6,7,8-tetrahydropteridine], the pest or weed control at 1000 g/ha was found to be 0% in assay [1]; 50% in assay [2]; 0% in assay [3]; 30% in [4]; 70% in assay [5]; 20% in assay [6]. The pest or weed control at 1000 g/ha in assay [7], in [8], in [9], in [10], in [11] and in [12] was 0% in each case.

The values are drawn from patent US20120202690A1, “HERBICIDAL COMPOUNDS” (SYNGENTA LIMITED, priority 2009, published 2012).
